Measured values: US10363239B2, “Method for inhibiting growth of cancer cells” (Pain Therapeutics, Inc., priority 2013, dated 2019)
Like-named read-outs stand apart in the source and are kept apart here.

Experiments:
[1] = tested on: mu opiate receptor (MOR); assay: MOR agonist activity using [35S]GTPγS binding assay in striatal membranes; assay type: biochemical; conditions: for MOR agonist activity ([35S]GTPγS binding), FLNA-Binding Compound as Agonist 1 μM + BFNA: 1 μM compound + 1 μM β-funaltrexamine
Outline: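 Striatal membranes (200 μg) were preincubated 5 min at 30 °C in HEPES pH 7.5 with 100 mM NaCl, 1 mM MgCl2 and 0.5 nM [35S]GTPγS, then 5 min more with 0.1–10 μM compound. Gαo was immunoprecipitated and bound radioactivity counted by scintillation.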

[2] = target: FLNA pentapeptide of SEQ ID NO: 1 (Bn-VAKGL) (Homo sapiens, UniProt P21333); assay: FITC-NLX-based FLNA screening assay (inhibition of FITC-naloxone binding to Bn-VAKGL on streptavidin plates); conditions: for inhibition at 0.01 µM / inhibition at 0.1 µM / inhibition at 1 µM: 10 nM FITC-NLX
[3] = Series C-1, 0.1 μM compound, relative to DAMGO
[4] = Series C-1, 0.1 μM compound, [35S]GTPγS binding to Gαo, striatal membranes
[5] = Series C-1, 1 μM compound + 1 μM β-FNA
[6] = Series C-1, 1 μM compound + β-FNA, relative to DAMGO + BFNA
[7] = Series C-1, 1 μM compound, relative to DAMGO
[8] = Series C-1, 1 μM compound, [35S]GTPγS binding to Gαo, striatal membranes
[9] = read-out: Percent Binding Inhibition, FLNA-binding compound 0.01 μM
[10] = read-out: Percent Binding Inhibition, FLNA-binding compound 0.1 μM
[11] = read-out: Percent Binding Inhibition, FLNA-binding compound 1 μM
[12] = Series C-2, 0.1 μM compound, relative to DAMGO
[13] = Series C-2, 0.1 μM compound, [35S]GTPγS binding to Gαo, striatal membranes
[14] = Series C-2, 1 μM compound + 1 μM β-FNA
[15] = Series C-2, 1 μM compound + β-FNA, relative to DAMGO + BFNA
[16] = Series C-2, 1 μM compound, relative to DAMGO
[17] = Series C-2, 1 μM compound, [35S]GTPγS binding to Gαo, striatal membranes
[18] = FLNA-binding compound 0.01 μM, read-out: Percent Binding Inhibition
[19] = FLNA-binding compound 0.1 μM, read-out: Percent Binding Inhibition
[20] = FLNA-binding compound 1 μM, read-out: Percent Binding Inhibition
[21] = 0.1 μM compound relative to DAMGO
[22] = 1 μM compound + BFNA relative to DAMGO + BFNA
[23] = 1 μM compound relative to DAMGO

Row | Structure (SMILES) | inhibition at 0.01 µM [2, 9] | inhibition at 0.1 µM [2, 10] | inhibition at 1 µM [2, 11] | % DAMGO (0.1 μM) [1, 12] | MOR agonist activity, percent [35S]GTPγS binding at the stated compound concentration [1, 13] | MOR agonist activity, percent [35S]GTPγS binding at the stated compound concentration [1, 14] | % DAMGO + BFNA [1, 15] | % DAMGO (1 μM) [1, 16] | MOR agonist activity, percent [35S]GTPγS binding at the stated compound concentration [1, 17] | inhibition at 0.01 µM [2, 18] | inhibition at 0.1 µM [2, 19] | inhibition at 1 µM [2, 20] | also measured
1 | CC(=O)c1ccc(S(=O)(=O)N2CCC3(CC2)OC(CN(C)C)CN3S(=O)(=O)c2ccc(C(C)=O)cc2)cc1 (centres unmarked) [Compound C0065] | 37.1% | 44% | 47% | – | – | – | – | – | – | – | – | – | % DAMGO (0.1 μM) [1, 3]: 127.0%; Concentration of FLNA-Binding Compound as Agonist 0.1 μM [1, 4]: 198.3%; Concentration of FLNA-Binding Compound as Agonist 1 μM + BFNA [1, 5]: 47.7%; % DAMGO + BFNA [1, 6]: 119.5%; % DAMGO (1 μM) [1, 7]: 121.3%; Concentration of FLNA-Binding Compound as Agonist 1 μM [1, 8]: 279.5%
2 | CCN1CCC2(CC1)OCCN2S(=O)(=O)c1ccc(C(C)=O)cc1 [Compound C0094M] | – | – | – | 100.2% | 172.5% | 115.3% | 334.2% | 119.9% | 263.5% | 43% | 52.8% | 57.5% | –
3 | OC(COc1ccc(Br)c(F)c1)CN1CCCCC1 (centres unmarked) [Compound A0058] | 28.9% | 36.6% | 42.1% | – | – | – | – | – | – | – | – | – | MOR agonist activity ([35S]GTPγS binding), FLNA-Binding Compound as Agonist 0.1 μM ([1]; 0.1 μM compound): 70.7%; % DAMGO (0.1 μM) [1, 21]: 45.3%; MOR agonist activity ([35S]GTPγS binding), FLNA-Binding Compound as Agonist 1 μM ([1]; 1 μM compound): 244.3%; MOR agonist activity ([35S]GTPγS binding), FLNA-Binding Compound as Agonist 1 μM + BFNA [1]: 59.9%; % DAMGO + BFNA [1, 22]: 150.1%; % DAMGO (1 μM) [1, 23]: 106.0%
4 | O=S(=O)(c1ccc(OC(F)(F)F)cc1)N1CCOC12CCN(CC1CC1)CC2 [Compound 4] | – | – | – | – | – | – | – | – | – | – | – | – | MOR agonist activity, FLNA-Binding Compound as Agonist 0.1 μM (preliminary study) ([1]; 0.1 μM, average of two runs): 133.9%; MOR agonist activity, FLNA-Binding Compound as Agonist 1 μM + βNFA (preliminary study) ([1]; 1 μM + βNFA, average of two runs): 49.5%; MOR agonist activity, FLNA-Binding Compound as Agonist 1 μM (preliminary study) ([1]; 1 μM, average of two runs): 165.2%; MOR agonist activity (conclusion in words) ([1]; preliminary study): not as potent a MOR agonist; Binding to FLNA (conclusion in words) ([2]; preliminary study): bound well to FLNA
5 | CCCCN1CCC2(CC1)OCCN2S(=O)(=O)c1ccc(OC)cc1 [Compound C0102M] | – | – | – | 78.6% | 131.8% | 150.4% | 316.6% | 122.4% | 272.0% | 52.3% | 53.1% | 56.6% | –
6 | CC(=O)c1ccc(S(=O)(=O)N2CC(CN(C)C)OC23CCN(CC2CC2)CC3)cc1 (centres unmarked) [Compound C0128M] | – | – | – | 104.5% | 197.8% | 63.9% | 131.8% | 115.2% | 286.0% | 46.5% | 54.4% | 58.2% | –
7 | CC1CN(CC(O)COc2cc(F)cc(F)c2)CC(C)O1 (centres unmarked) [Compound A0046] | – | – | – | – | – | – | – | – | – | 34.3% | 38.4% | 40.9% | MOR agonist activity ([35S]GTPγS binding), FLNA-Binding Compound as Agonist 0.1 μM ([1]; 0.1 μM compound): 257.5%; % DAMGO (0.1 μM) [1, 21]: 131.2%; MOR agonist activity ([35S]GTPγS binding), FLNA-Binding Compound as Agonist 1 μM ([1]; 1 μM compound): 354.1%; MOR agonist activity ([35S]GTPγS binding), FLNA-Binding Compound as Agonist 1 μM + BFNA [1]: 140.0%; % DAMGO + BFNA [1, 22]: 189.4%; % DAMGO (1 μM) [1, 23]: 128.3%
8 | CC(=O)c1ccc(S(=O)(=O)N2CCC3(CC2)OCC(CCCCN(C)C)N3S(=O)(=O)c2ccc(C(C)=O)cc2)cc1 (centres unmarked) [Compound C0080] | – | – | – | – | – | – | – | – | – | 46.8% | 53.3% | 54.6% | % DAMGO (0.1 μM) [1, 3]: 112.1%; Concentration of FLNA-Binding Compound as Agonist 0.1 μM [1, 4]: 187.9%; Concentration of FLNA-Binding Compound as Agonist 1 μM + BFNA [1, 5]: 167.1%; % DAMGO + BFNA [1, 6]: 351.8%; % DAMGO (1 μM) [1, 7]: 92.4%; Concentration of FLNA-Binding Compound as Agonist 1 μM [1, 8]: 205.4%
9 | COc1ccc(CCC(=O)CC2c3c(cc4c(c3OC)OCO4)CCN2C)cc1 (centres unmarked) [Compound B0047] | – | – | – | – | – | – | – | – | – | 30.7% | 37.6% | 47.1% | % DAMGO (0.1 μM) ([1]; Series B, 0.1 μM compound, relative to DAMGO): 106.3%; MOR agonist activity, percent [35S]GTPγS binding at the stated compound concentration ([1]; Series B, 0.1 μM compound, [35S]GTPγS binding to Gαo, striatal membranes): 187.8%; MOR agonist activity, percent [35S]GTPγS binding at the stated compound concentration ([1]; Series B, 1 μM compound + 1 μM β-FNA): 68.4%; % DAMGO + BFNA ([1]; Series B, 1 μM compound + β-FNA, relative to DAMGO + BFNA): 260.1%; % DAMGO (1 μM) ([1]; Series B, 1 μM compound, relative to DAMGO): 92.6%; MOR agonist activity, percent [35S]GTPγS binding at the stated compound concentration ([1]; Series B, 1 μM compound, [35S]GTPγS binding to Gαo, striatal membranes): 235.6%
10 | CC(=O)c1ccc(S(=O)(=O)N2CCC3(CC2)NC(=O)C(Cc2cnc[nH]2)N3S(=O)(=O)c2ccc(C(C)=O)cc2)cc1 (centres unmarked) [Compound C0084M] | 47.2% | 53.7% | 55.9% | – | – | – | – | – | – | – | – | – | % DAMGO (0.1 μM) [1, 3]: 97.3%; Concentration of FLNA-Binding Compound as Agonist 0.1 μM [1, 4]: 163.1%; Concentration of FLNA-Binding Compound as Agonist 1 μM + BFNA [1, 5]: 133.2%; % DAMGO + BFNA [1, 6]: 280.4%; % DAMGO (1 μM) [1, 7]: 114.9%; Concentration of FLNA-Binding Compound as Agonist 1 μM [1, 8]: 255.5%
11 | COc1ccc(S(=O)(=O)N2CCC3(CC2)NCCC(=O)N3)cc1 [Compound C0142M] | 35.1% | 39.4% | 56% | 97.8% | 143.7% | 98.7% | 251.1% | 95.2% | 192.5% | – | – | – | –
12 | COc1ccc(OCC(O)Cn2ccc3ccccc32)cc1 (centres unmarked) [Compound A0077] | – | – | – | – | – | – | – | – | – | 41.1% | 48.7% | 49.4% | MOR agonist activity ([35S]GTPγS binding), FLNA-Binding Compound as Agonist 0.1 μM ([1]; 0.1 μM compound): 300.1%; % DAMGO (0.1 μM) [1, 21]: 170.5%; MOR agonist activity ([35S]GTPγS binding), FLNA-Binding Compound as Agonist 1 μM ([1]; 1 μM compound): 334.7%; MOR agonist activity ([35S]GTPγS binding), FLNA-Binding Compound as Agonist 1 μM + BFNA [1]: 103.5%; % DAMGO + BFNA [1, 22]: 470.5%; % DAMGO (1 μM) [1, 23]: 132.3%
13 | COc1ccc(S(=O)(=O)N2CCC3(CC2)OCCN3S(=O)(=O)c2ccc(OC)c(OC)c2)cc1OC [Compound C0049] | – | – | – | – | – | – | – | – | – | 25.3% | 27.9% | 30.3% | % DAMGO (0.1 μM) [1, 3]: 73.5%; Concentration of FLNA-Binding Compound as Agonist 0.1 μM [1, 4]: 106.6%; Concentration of FLNA-Binding Compound as Agonist 1 μM + BFNA [1, 5]: 81.0%; % DAMGO + BFNA [1, 6]: 184.1%; % DAMGO (1 μM) [1, 7]: 90.1%; Concentration of FLNA-Binding Compound as Agonist 1 μM [1, 8]: 210.0%
14 | O=S(=O)(c1ccc(C(F)(F)F)cc1)N1CCC2(CC1)OCCN2S(=O)(=O)c1ccc(C(F)(F)F)cc1 [Compound C0012] | 26.3% | 39.5% | 46.4% | – | – | – | – | – | – | – | – | – | % DAMGO (0.1 μM) [1, 3]: 54.8%; Concentration of FLNA-Binding Compound as Agonist 0.1 μM [1, 4]: 96.8%; Concentration of FLNA-Binding Compound as Agonist 1 μM + BFNA [1, 5]: 184.4%; % DAMGO + BFNA [1, 6]: 280.7%; % DAMGO (1 μM) [1, 7]: 86.7%; Concentration of FLNA-Binding Compound as Agonist 1 μM [1, 8]: 224.8%
15 | CS(=O)(=O)c1ccc(S(=O)(=O)N2CCOC23CCNCC3)cc1 [Compound C0116M] | 53.9% | 60% | 62.9% | 136.6% | 258.4% | 152.0% | 313.4% | 122.0% | 302.8% | – | – | – | –
16 | CCN1CCC2(CC1)OCCN2S(=O)(=O)c1ccc(OC)cc1 [Compound C0089M] | – | – | – | 136.3% | 234.5% | 81.9% | 237.4% | 134.4% | 295.3% | 40.7% | 46.1% | 51.2% | –
17 | CC1CN(CC(O)COc2ccccc2Br)CC(C)O1 (centres unmarked) [Compound A0043] | – | – | – | – | – | – | – | – | – | 46.4% | 48.9% | 51.8% | MOR agonist activity ([35S]GTPγS binding), FLNA-Binding Compound as Agonist 0.1 μM ([1]; 0.1 μM compound): 183.3%; % DAMGO (0.1 μM) [1, 21]: 93.4%; MOR agonist activity ([35S]GTPγS binding), FLNA-Binding Compound as Agonist 1 μM ([1]; 1 μM compound): 223.8%; MOR agonist activity ([35S]GTPγS binding), FLNA-Binding Compound as Agonist 1 μM + BFNA [1]: 89.1%; % DAMGO + BFNA [1, 22]: 120.6%; % DAMGO (1 μM) [1, 23]: 81.1%
